Assay results: patent publication US20220354855A1, “TREATMENT FOR GASTROINTESTINAL DISORDERS” (Mayo Foundation for Medical Education and Research, priority 2019, published 2022)

What was measured:
[1] = test system: colonic biopsies from healthy, IBS-C, and IBS-D subjects; experiment: Ussing chamber short circuit current (ΔIsc) in response to serotonin (5-HT), colonic biopsies; set-up: species or system human; details: cumulative concentrations of 5-HT applied basolaterally; biopsies from IBS-C patients versus HC; FIG. 3C
Source text: FIGS. 3A-3F: Integrated top-down bottom-up approach provides mechanistic insight into the effect of gut microbiota metabolism on host physiology. FIG. 3A is a series of graphs plotting the abundance of propionate (left), butyrate (center), and acetate (right) as determined by ^1H NMR. The data are shown as mixed linear models correcting for subject in stool samples from healthy, IBS-C, and IBS-D subjects. FIG. 3B is a graph plotting the abundance of acetate in colonic biopsies. FIG. 3C is a graph plotting maximal ΔIsc (Imax) following application of cumulative concentrations of serotonin (5-HT) basolaterally in colonic biopsies from healthy, IBS-C, and IBS-D subjects. FIG. 3D is a graph plotting baseline Isc observed in colonic biopsies from healthy, IBS-C, and IBS-D subjects (P-values are Tukey HSD adjusted from a linear model). FIG. 3E is a pair of graphs plotting the abundance of tryptophan (left) and tryptamine (right) in stool samples from healthy, IBS-C, and IBS-D subjects. […]
Ussing chamber experiments: Colonic mucosal secretory responses were assessed using Ussing chamber setups. […] Short circuit current (Isc) was continuously recorded using Acquire and Analyze software (Physiologic Instruments). ΔIsc values were calculated using Isc measurements before and after application of compounds to the basolateral side and normalized to the tissue area. […]

[2] = test system: proximal colon mucosa submucosa preparations from germ free mice; experiment: Ussing chamber short circuit current (Isc) in response to CDCA, colon mucosa-submucosa preparations; details: CDCA applied basolaterally, n=3, Wilcoxon, FIG. 4E
Source text: FIGS. 4A-4E: An integrated metabolomics approach provides mechanistic insight into the effect of gut microbiota metabolism on host physiology. FIG. 4A is a series of graphs plotting the abundance of propionate (left), butyrate (center), and acetate (right) as determined by ^1H NMR using stool samples from healthy, IBS-C, and IBS-D subjects (averaged data per subject, pairwise Mann-Whitney tests). FIG. 4B is a pair of graphs plotting the abundance of tryptophan (left) and tryptamine (right) as determined by LC-MS in stool samples from healthy, IBS-C, and IBS-D subjects (averaged data per subject, pairwise Mann-Whitney tests). FIG. 4C is a series of graphs plotting the abundance of cholic acid (CA, left panel), chenodeoxycholic acid (CDCA, center panel), and deoxycholic acid sulfate (DCA-S, right panel) as determined by ^1H NMR with stool samples from healthy, IBS-C, and IBS-D subjects (mixed linear models correcting for subject). FIG. 4D is a series of graphs plotting the abundance of CA, CDCA, and DCA-S as determined by ^1H NMR using stool samples from healthy, IBS-C, and IBS-D subjects (averaged data per subject, pairwise Mann-Whitney tests). […]
Ussing chamber experiments: Colonic mucosal secretory responses were assessed using Ussing chamber setups. […]

SMILES | secretory response (maximal ΔIsc, Imax) to serotonin (5-HT) [1] | Isc in response to CDCA (ΔIsc, Imax) [2]
NCCc1c[nH]c2ccc(O)cc12 [serotonin (5-HT), serotonin] | significantly lower than HC | 
C[C@H](CCC(=O)O)[C@H]1CC[C@H]2[C@@H]3[C@H](O)C[C@@H]4C[C@H](O)CC[C@]4(C)[C@H]3CC[C@]12C [CDCA, chenodeoxycholic acid] |  | significant increase in Isc
